The results in this text go back to a melting point compilation (Tetko et al.; mined from patent text by program, amines drawn as free bases though some values may be those of a salt).

Where only a bound is given, the exact number is not on record here.

Compound `CCC(O)(c1ccc(OCCCN2CCCCC2)cc1)c1cccc(Cl)c1` (centres undefined) came in with a melting point of 80 to 81 °C.

In turn, `CC(NC(=S)NCc1ccc(C(C)(C)C)cc1)c1ccc(NS(C)(=O)=O)cc1` (centres undefined) had a melting point of 101 °C.

In turn, `CCS(=O)c1cn(C)cc(-c2cccc(C(F)(F)F)c2)c1=O` (centres undefined) came in with a melting point of 146 to 148 °C.

`CC(C)(C)c1cc(C(=O)COc2ccc(C(=O)OCc3ccccc3)c(O)c2)ccc1OCc1ccccc1` registered a melting point of 91 to 93 °C.

For the compound `Cn1cc(C(=O)NCc2ccc(Cl)cc2)c(=O)c2cc(CN3CC4CC3CO4)ccc21` (centres undefined), the melting point is 162 to 163 °C.

In turn, `O=Cc1cncn1-c1ccc(F)cc1` registered a melting point of 131 to 133 °C.

`O=C1Cc2ccc(SCc3ccccc3)cc2N1` returned a melting point of 132 to 134 °C.

As for `CON(C)C(=O)Nc1ccc(OCCc2ccc(C(C)(C)C)cc2)cc1`, the melting point was in the range of 14 to 15 °C.

`CCOC(=O)C(Cc1cccc2ccccc12)(Cc1cccc2ccccc12)C(=O)OCC` yielded a melting point of 79 to 81 °C.

For the compound `COc1ccc(-c2nc3cc4c(cc3[nH]2)NC(=O)C4C(C)C)cc1` (centres undefined), the melting point lay in the range of 326 to 328 °C.

As to `CON=C1CCS(=O)(=O)c2c(C)cc(C(=O)O)c(C)c21`, the melting point was 169 to 171 °C.

Turning to `CCCn1nc2c(N)nc3ncccc3c2c1CC(C)C`, the melting point is 257 to 260 °C.

`O=C(O)C1=Cc2ccc(Oc3ccccc3)cc2OC1C(F)(F)F` (centres undefined) returned a melting point of 180 to 181 °C.

Compound `COc1cc(Cl)ccc1C(=O)Nc1ccc(C(=O)N2Cc3ccccc3Cc3ccccc32)cc1` yielded a melting point of 237 to 239 °C.

Take `Nc1ccc(O)c(CSCCO)c1`: the melting point is 121 °C.

As for `NC(=O)c1ccc(N2CCN(CCC3CCc4ccccc43)CC2)cc1` (centres undefined), the melting point was 204 to 205 °C.

`CS(=O)(=O)SCCCCC(=O)O` had a melting point of 69 to 71 °C.

As for `CN(CCN1CCNC1=O)Cc1cn(-c2ccc(F)cc2)c2ccc(Cl)cc12`, the melting point was in the range of 141 to 143 °C.

Turning to `COC(=O)c1cc(NC(=O)C2=C(C)OCCS2)ccc1Cl`, the melting point was 115 to 117 °C.

The compound `CCOC(=O)c1ncn2c1CN(C)C(=O)c1c(F)cccc1-2` gave a melting point of 196 to 198 °C.

`O=C(/C=C/c1ccc2ccccc2c1)Nc1cc(Cl)ccc1NC(=O)C(F)(F)F` registered a melting point of 179 to 185 °C.

As for `Oc1ccc(C(c2ccc(O)cc2)c2cccc3ccccc23)cc1`, the melting point was 109 to 111 °C.

Compound `OC1CSC(Oc2cccc(-c3ncccc3Cl)c2)C(O)C1O` (centres undefined) displayed a melting point of 217 °C.

As to `Cc1cc(C)cc(COC(=O)C(Cc2c[nH]c3ccccc23)NS(=O)(=O)c2ccccc2)c1` (centres undefined), the melting point was 114 to 116 °C.

As for `O=C(N[C@H](Cc1cccc(OC(F)(F)C(F)F)c1)[C@@H](O)c1ccc(F)nc1)c1cccc2c1C=CCCC2` (racemic), the melting point is 140 to 142 °C.

`NCc1ccc(-n2c(-c3cccnc3N)nc3ccc(-c4cn[nH]c4)nc32)cc1` came in with a melting point of 264 to 269 °C.

Take `CCc1nc2cnc3cc(O)ccc3c2n1CC(C)C`: the melting point was above 250 °C.

For `CCOC(=O)CN(c1cccc2cc(-c3nccs3)n(COC)c12)S(=O)(=O)c1cccs1`, the melting point fell in the range of 124 to 125 °C.

The compound `CCOC(=O)C(=O)Nc1cc(Cl)c(Cl)cc1[N+](=O)[O-]` had a melting point of 96 to 97 °C.

As to `CCOC1OC(COC(C)=O)C(OC2OC(COC(C)=O)C(OC(C)=O)C(OC(C)=O)C2OC(C)=O)C(OC(C)=O)C1OC(C)=O` (centres undefined), the melting point lay within 133 to 135 °C.

For the compound `Cc1noc2ncnc(NC3Cc4ccccc4C3)c12`, the melting point was found to be 208 °C.

With `OC(CN1CCC(C(O)c2ccccc2)CC1)c1ccc(F)cc1` (centres undefined), the melting point is 114 to 116 °C.

On to `CN[C@@H]1COc2ccc(Cl)c(-c3ccccc3Cl)c2O1`, for which the melting point is 105 °C.

In turn, `CC(=O)NC(C)(C(=O)O)C(C)C` (centres undefined) displayed a melting point of 189 to 190 °C.

In turn, `Cc1cc(O)nc2c1c(C)nn2-c1ccccn1` had a melting point of 254 to 255 °C.

In the case of `CCCc1nc(Sc2ccc(O)cc2)c(C=O)n1Cc1cc2c(cc1Cl)OCO2`, the melting point is 242 °C.

In turn, `Cc1ccc(OCc2ccccc2)c(C(CCN2CC3(C)CC3(C)C2)c2ccccc2)c1` (centres undefined) had a melting point of 93 to 95 °C.

Compound `Clc1ccc2c(c1)CNC2` returned a melting point of 49 to 50 °C.

With `OC1CCCCCC1n1cncn1` (centres undefined), the melting point fell in the range of 85 to 86 °C.

In the case of `COC(=O)Cc1ccc(OCc2ccc(OCc3nc(-c4ccccc4)oc3C)cc2)cc1`, the melting point was in the range of 93 to 94 °C.

Consider `Cc1[nH]cnc1CON1C(=O)c2ccccc2C1=O`, for which the melting point was in the range of 155 to 156 °C.

The compound `CCC(C)C(C#N)NCC(O)c1ccccc1` (centres undefined) displayed a melting point of 106 to 108 °C.

Take `CC(C)CCCC(C)C1CCC2(C#N)C3C(O)CC4C(C)(C)C(OC(=O)c5ccccc5)CCC4(C)C3CCC12C` (centres undefined): the melting point was in the range of 270 to 271 °C.

On to `O=C(CCCCBr)NNC(=O)N1Cc2ccccc2Oc2ccc(Cl)cc21`, for which the melting point was 147 to 149 °C.

Compound `Cc1[nH]cnc1CCCCNC(=O)c1ccccc1` came in with a melting point of 124 to 128 °C.

As to `O=COCc1c(Cl)ccc2cc(Cl)cnc12`, the melting point is 146 °C.

`Cc1c(C)c(O)c(CC[C@](C)(O)CO)c(C)c1O` displayed a melting point of 124 to 132 °C.

`C[C@H]([C@H](O)c1ccc2c(c1)OC(c1ccccc1)(c1ccccc1)O2)N1CCC(O)(c2ccccc2)CC1` (relative stereo) registered a melting point of 224 °C.

As for `S=C(Nc1ccccc1)Nc1ncccc1OCc1ccc(Cl)cc1`, the melting point lay within 162 to 164 °C.

For the compound `Cn1ccc2cc(/C=C/C3=CCN(Cc4ccccc4)CC3)ccc21`, the melting point was determined as 138 °C.

For `CC(=O)NC(=O)NCC(=O)N1CC1C#N` (centres undefined), the melting point was in the range of 118 to 122 °C.

`O=C1Cc2c(cccc2C(=O)O)Sc2ccccc21` had a melting point of 230 to 232 °C.

As for `CC(C)(C)c1cc(-c2c(C(=O)O)c(=O)oc3cc4c(cc23)CCC4)cc(C(C)(C)C)c1O`, the melting point is 256 to 260 °C.

`Nc1sc(-c2ccccn2)c(CN(C2CCCCC2)C2CCCCC2)c1C(=O)c1ccc(Cl)cc1` showed a melting point of 192 to 194 °C.

`O=[N+]([O-])c1ccc(CSc2ncnc3nc[nH]c23)cc1` displayed a melting point of 239 °C.

As for `CCOC(=O)C(C#N)=C(NCc1ccccc1)NCC1CN(Cc2ccc(F)cc2)CCO1` (centres undefined), the melting point is 107 to 108 °C.

`Fc1ccc(-c2cccc(-c3cn([C@H]4CN5CCC4CC5)nn3)c2)cn1`: the melting point was determined as 164 °C.

In the case of `CN(C)c1c(CS(=O)(=O)C2=NOC(C)(C)C2)c(C(F)(F)F)nn1-c1ccccc1`, the melting point lay in the range of 150 to 151 °C.

In turn, `Oc1ccc(Oc2ccc(C(F)(F)F)cc2Cl)cc1` came in with a melting point of 55 to 56 °C.

In the case of `CCCCCCCCCCCCCC(=O)Nc1ccc(Cl)c(NC2=NN(c3c(Cl)cc(Cl)cc3Cl)C(=O)C2SCc2ccccc2)c1` (centres undefined), the melting point was in the range of 182 to 185 °C.

Compound `CCOC(=O)CN(CC1Nc2cc(Cl)c(S(N)(=O)=O)cc2S(=O)(=O)N1)C(=O)C(C)CSC(C)=O` (centres undefined) registered a melting point of 127 to 130 °C.

Compound `CC(C)(C)Cc1ccc(C(=O)O)cc1` came in with a melting point of 191 to 193 °C.

For `CCCCNc1cc(CNc2ccccc2)cc(S(N)(=O)=O)c1Oc1ccccc1`, the melting point lay in the range of 142 to 143 °C.

Turning to `Cc1csc(N)c1S(=O)(=O)CC#N`, the melting point lay in the range of 88 to 90 °C.

Compound `N#Cc1ccc(N(Cc2ccc(OS(N)(=O)=O)c(F)c2)n2cnnc2)cc1-c1ccccc1` showed a melting point of 198 to 200 °C.

On to `O=C1Nc2cc(Cl)ccc2C1c1ncnc2nn(C3CCCCC3)cc12` (centres undefined), for which the melting point lay within 299 to 303 °C.

`Cc1cccc(C(=O)C2CCCc3cccnc32)c1` (centres undefined) registered a melting point of 211 to 213 °C.

For the compound `COC(=O)Cc1ccc(O)c(F)c1`, the melting point was in the range of 32 to 34 °C.

For `CCCc1c(C(=O)C(C)C)c2ccc(C(=O)OCc3ccccc3)cc2n1C(=O)c1ccccc1Cl`, the melting point is 67.5 to 70 °C.

The compound `COc1ccc(CC(=O)NCCc2ccc(N)cc2)cc1` gave a melting point of 112 to 114 °C.

On to `O=c1nc(N2CCCc3c(Br)cccc32)sc2ncccc12`, for which the melting point was in the range of 173 to 174 °C.

The compound `CCc1c(-c2ccccc2)c2c(COCCN3CCCCC3)cc3c(O)ccc1n32` showed a melting point of 196 to 198 °C.

As for `Fc1ccc2nc(Cl)c3nnc(C(F)(F)F)n3c2c1`, the melting point was 135 to 138 °C.

As for `CCn1cc(Cl)c(=O)[nH]c1=O`, the melting point is 217 to 220 °C.

In turn, `CC1(C)CC(=O)Nc2c(CCN3CCN(C4=NS(=O)c5ccccc54)CC3)cc(F)cc21` (centres undefined) gave a melting point of 235 °C.

In turn, `CCOC(=O)c1csc(-c2ccc3cc(C(=O)OCc4ccccc4)c(C45CC6CC(CC(C6)C4)C5)cc3c2)c1` showed a melting point of 98 to 100 °C.

`O=C(O)C1C(c2ccc3c(c2)OCO3)c2ccccc2C1c1ccc2c(c1)OCO2` (racemic) returned a melting point of 182 to 185 °C.

Turning to `COC(=O)CCCC#Cc1cc(Cl)ccc1NS(=O)(=O)c1ccc2c(c1)CCC(=O)N2`, the melting point lay in the range of 53 to 57 °C.

`N#CCCNC(=S)C1=CC(CF)(CF)Oc2ccc(C(F)(F)C(F)(F)C(F)(F)F)cc21`: the melting point fell in the range of 94 to 95 °C.

`ONc1ccc(Cl)cc1` yielded a melting point of 83 to 84 °C.

As to `CCCCN1C(=O)CSC(=NO)C1C` (centres undefined), the melting point was 118 to 120 °C.

`O=C(O)Cc1ccc2c3ccccc3n(Cc3ccccc3)c2c1` yielded a melting point of 149 to 150 °C.

Regarding `CCCc1nc2c(N)ncc(Br)c2n1CCOCCN`, the melting point was in the range of 114 to 117 °C.

`Oc1ccc(-c2nnc(CCCCCCc3ccccc3)o2)cc1` gave a melting point of 125 to 129 °C.

`CCOC(=O)COCCN(C)C(=O)c1c(-c2ccc(C(C)(C)C)cc2)n(C)n(-c2ccc(C#N)cc2)c1=O` displayed a melting point of 192 to 194 °C.

`CCCCc1oc2ccccc2c1/C=N/OCCCOc1ccc(C(=O)O)c(O)c1` showed a melting point of 140 to 142 °C.

Consider `COC(=O)CCCOc1ccc2c(c1OC)N=C(C=C(O)c1cccnc1)N1CCN=C21`, for which the melting point is 199 to 200 °C.

With `O=C1c2cccc(O)c2C(=O)c2c(NCCCCO)ccc(O)c21`, the melting point was determined as 168 °C.

As for `CC(CC(=O)O)C(=O)NC1(C(=O)O)CCCC1` (centres undefined), the melting point fell in the range of 169 to 170 °C.

As a reminder, the melting point is the temperature of the solid-liquid transition.
